{
  "source": "patent US20240360135A1",
  "about": "“IMIDAZO[1,2-B]PYRIDAZINYL COMPOUNDS AND USES THEREOF” (Sumitomo Pharma Oncology, Inc., priority 2021, published 2024)",
  "key": {"[1]": {"test_system": "IL-23-induced hyperplasia", "assay": "IL-23 induced hyperplasia mouse model (psoriasis study)", "assay_type": "in vivo, C57BL/6J mice", "details": "for IL-17A production in ear tissue / IL-22 synthesis in ear tissue: day four; for thickness of the ear epidermal tissue: vs rmIL-23/vehicle; for gross ear thickness: caliper, vs rmIL-23/vehicle control group, BID dosing", "text": "The IL-23-induced hyperplasia model involves the injection of IL-23 into the ear of mice, and is dependent on IL-22 for the development of dermal inflammation and acanthosis. This model is commonly used to investigate pathways involved in psoriasis as well as potential therapies. To test the ability of Compounds 2 and 4 to reduce psoriasis in vivo, an IL-23 induced hyperplasia mouse model was utilized, and analyses of end-points, such as IL-17A and IL-22 levels, and histological measure of epidermal thickness of the ear tissue, were performed. Procedure. Female C57BL/6J mice between 9 to 13 weeks old (purchased from Taconic Biosciences) were weighed on the day prior to study start to establish a baseline. All treatment arms contained ten animals. All animals, except the sham/vehicle group received 0.4 μg of recombinant mouse IL-23 (rmIL-23) in a volume of 20 μL intradermally into one ear. Mice in group 1 (sham/vehicle) received 20 μL PBS. A total of 4 injections per ear was performed while the second ear was not injected nor analyzed. All drugs were prepared in 0.5 percent methylcellulose and 2 percent Tween 80. Starting on day zero of the study (0.5 to 4 hours before rmIL-23 injection), two doses of test compound (100 or 150 milligrams per kilogram of Compound 4, or 50 or 75 milligrams per kilogram of Compound 2) were given. All dosing was at the same time (+/−1 hour) each day with no less than 10 hours and no more than 14 hours between doses. On days zero (before rmIL-23 injection), three, and four (approximately 24 hours after the final hyperplasia induction injection), thickness of ears was measured using a caliper. Measurements were performed blind, by a person unaware of group or previous measurements. On day four, approximately 24 hours after the final hyperplasia induction injection, all mice were euthanized, and treated ears collected and weighed. Half of each ear was weighed and frozen for cytokine analysis (IL-17A and IL-22 concentration was measured using the Luminex technology by ELISA). The other half of each ear were fixed in 10 percent buffered formalin following H&E staining for histological analysis."}, "PIM2": {"target": "T1, PIM2 (Homo sapiens, UniProt Q9P1W9)", "T1 construct": "purchased Invitrogen PR6347B", "T1 sequence (Q9P1W9 whole entry)": "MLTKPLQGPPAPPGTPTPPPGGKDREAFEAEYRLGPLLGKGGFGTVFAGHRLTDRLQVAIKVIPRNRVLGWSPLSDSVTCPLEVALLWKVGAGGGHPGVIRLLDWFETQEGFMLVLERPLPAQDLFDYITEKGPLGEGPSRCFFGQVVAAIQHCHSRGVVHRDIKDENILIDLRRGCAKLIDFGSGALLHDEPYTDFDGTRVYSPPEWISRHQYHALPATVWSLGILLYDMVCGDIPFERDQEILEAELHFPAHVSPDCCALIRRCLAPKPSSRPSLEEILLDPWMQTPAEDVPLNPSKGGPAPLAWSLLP", "assay": "RBC HotSpot kinase inhibition assay, PIM2", "assay_type": "biochemical", "protocol": "Reagents. Base Reaction Buffer: 20 mM Hepes (pH 7.5), 10 mM MgCl2, 1 mM EGTA, 0.01% Brij35, 0.02 mg/ml BSA, 0.1 mM Na3VO4, 2 mM DTT, 1% DMSO. The following kinases were used in the assay at the indicated concentrations:\nThe following substrates were used in combination with the indicated kinases in the assay at the indicated concentration:\nNo cofactors were added to any of the reactions.\n• 1. Prepared substrate in freshly prepared Reaction Buffer. • 2. Delivered kinase into the substrate solution and gently mixed. • 3. Delivered test compound in 100% DMSO into the kinase reaction mixture by Acoustic technology (Echo550; nanoliter range), incubated for 20 minutes at room temperature. • 4. Delivered ^33P-ATP into the reaction mixture to initiate the reaction. • 5. Incubated for 2 hours at room temperature. • 6. Detected kinase activity by P81 filter-binding method.\nThe results of the RBC HotSpot™ kinase assay are set forth in Table 1, wherein “A” indicates an IC50<10 nM, “B” indicates an IC50 wherein 10 nM≤IC50≤100 nM, and “C” indicates an IC50>100 nM."}, "[2]": {"test_system": "bleomycin-induced lung fibrosis", "assay": "Bleomycin-induced lung fibrosis model in mice", "assay_type": "in vivo, C57BL/6J mice", "details": "day 21", "protocol": "Overview. The most common animal model of pulmonary fibrosis is the bleomycin-induced lung fibrosis model in rodents. This model is commonly used to investigate biology and potential therapies for fibrotic diseases affecting the lung, such as idiopathic pulmonary fibrosis (IPF). Bleomycin, a cytotoxic drug, is administered to mice or rats, and causes direct cell injury triggered by DNA strand breaks, which leads to an overproduction of reactive oxygen species causing inflammation, pulmonary toxicity, activation of fibroblasts and subsequent fibrosis. Fibrosis is hallmarked by aberrant activation of lung epithelial cells and accumulation of fibroblasts and myofibroblasts with excessive production of extracellular matrix such as collagen.\nHydroxyproline is a major component of protein collagen, and plays a key role in the stability of the collagen triple helix. […]\nProcedure. […] The snap frozen portion of the lung tissue was subjected to hydroxyproline quantification, which is used as a common biomarker of fibrosis. […] The histological sections were scored using a modified Ashcroft scale, the number of mononuclear cell aggregates and alveolar mixed infiltrates as well as the levels of collagen. The mice were weighed on day seven, fourteen, and twenty-one to monitor weight changes, and mortality and clinical observations were recorded daily. […]"}, "[3]": {"details": "75 milligrams per kilogram twice a day"}, "[4]": {"details": "100 milligrams per kilogram twice a day"}, "[5]": {"details": "150 milligrams per kilogram twice a day"}},
  "data": [
    {"smiles": "Cc1cc(-c2cnc3ccc(NC45CCC(C(C)(C)O)(CC4)CC5)nn23)n[nH]1", "note": "[Compound 2, 2-(4-((3-(5-methyl-1H-pyrazol-3-yl)imidazo[1,2-b]pyridazin-6-yl)amino)bicyclo[2.2.2]octan-1-yl)propan-2-ol]", "values": [
      {"measurement": "IL-17A production in ear tissue", "setting": "[1]; [3]", "result": "strongly inhibited"},
      {"measurement": "IL-22 synthesis in ear tissue", "setting": "[1]; [3]", "result": "reduced"},
      {"measurement": "thickness of the ear epidermal tissue", "setting": "[1]; [3]", "result": "significantly reduced"},
      {"measurement": "gross ear thickness", "setting": "[1]", "result": "significantly reduced"},
      {"measurement": "IC50", "setting": "PIM2", "result": "> 100", "unit": "nM"},
      {"measurement": "Ashcroft score", "setting": "[2]; 20 milligrams per kilogram twice a day", "result": "significantly reduced"}
    ]},
    {"smiles": "CC(C)(O)C12CCC(Nc3ccc4ncc(-c5cc(C6CC6)[nH]n5)n4n3)(CC1)CC2", "note": "[Compound 4, 2-(4-((3-(5-cyclopropyl-1H-pyrazol-3-yl)imidazo[1,2-b]pyridazin-6-yl)amino)bicyclo[2.2.2]octan-1-yl)propan-2-ol]", "values": [
      {"measurement": "IL-17A production in ear tissue", "setting": "[1]; [4]", "result": "strongly inhibited"},
      {"measurement": "IL-22 synthesis in ear tissue", "setting": "[1]; [4]", "result": "reduced"},
      {"measurement": "thickness of the ear epidermal tissue", "setting": "[1]; [4]", "result": "significantly reduced"},
      {"measurement": "gross ear thickness, comparison between groups", "setting": "[1]; [5]", "result": "greater effect"},
      {"measurement": "IL-17A production in ear tissue", "setting": "[1]; [5]", "result": "strongly inhibited"},
      {"measurement": "IL-22 synthesis in ear tissue", "setting": "[1]; [5]", "result": "reduced"},
      {"measurement": "thickness of the ear epidermal tissue", "setting": "[1]; [5]", "result": "significantly reduced"},
      {"measurement": "gross ear thickness", "setting": "[1]", "result": "significantly reduced"},
      {"measurement": "IC50", "setting": "PIM2", "result": "10 to 100", "unit": "nM"},
      {"measurement": "reduction of hydroxyproline in lung tissue", "setting": "[2]; 15 milligrams per kilogram twice a day", "result": "greatest and most statistically significant reduction"}
    ]}
  ]
}
